Test results: ChEMBL document CHEMBL5537197, “Discovery of Novel Coumarin-quinolinium Derivatives as Pan-KRAS Translation Inhibitors by Targeting 5'-UTR RNA G-Quadruplexes” (J Med Chem, 2024)
pIC50: −log10 of the molar value. The source made the active and inactive calls. The calls are words filed in the database; no cut-off is given here.

Legend:
[1] = system: NCM460; assay: Cytotoxicity against human NCM460 cells harboring wild-type KRAS assessed as cell growth inhibition incubated for 24 hrs by MTT assay; type: functional, cell-based; conditions: NCM460, 24 h
[2] = system: PANC-1; assay: Cytotoxicity against human PANC-1 cells harboring KRAS G12D mutant assessed as cell growth inhibition incubated for 24 hrs by MTT assay; type: functional, cell-based; conditions: PANC-1, 24 h
[3] = Cytotoxicity against human PANC-1 cells […] assessed as cell growth inhibition incubated for 24 hrs by MTT assay; type: functional, cell-based; conditions: PANC-1, 24 h
[4] = system: MIA PaCa-2; assay: Cytotoxicity against human MIA PaCa-2 cells harboring KRAS G12C mutant assessed as cell growth inhibition incubated for 24 hrs by MTT assay; type: functional, cell-based; conditions: MIA PaCa-2, 24 h
[5] = target: GTPase KRas (Homo sapiens) (UniProt P01116); assay: Inhibition of KRAS in human PANC-1 cells at 2.5 uM incubated for 24 hrs by Western blot analysis; type: cell-based
GTPase KRas (Homo sapiens), sequence (P01116 whole entry, looked up): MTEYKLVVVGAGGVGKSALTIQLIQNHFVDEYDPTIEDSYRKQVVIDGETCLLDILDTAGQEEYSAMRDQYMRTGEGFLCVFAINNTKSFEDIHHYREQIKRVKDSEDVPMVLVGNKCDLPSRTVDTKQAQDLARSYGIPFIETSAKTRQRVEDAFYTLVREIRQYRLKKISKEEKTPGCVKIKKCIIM

[6] = target: GTPase KRas (Homo sapiens) (UniProt P01116); assay: Inhibition of KRAS in human MIA PaCa-2 cells at 2.5 uM incubated for 24 hrs by Western blot analysis; type: cell-based

| SMILES | pIC50 [1] | pIC50 [2] | pIC50 [3] | pIC50 [4] | inhibition [5] | inhibition [6] |
| --- | --- | --- | --- | --- | --- | --- |
| CCN(CC)c1ccc2cc(/C=C/c3cc(NCCCN4CCOCC4)c4cc(F)c(NCCCN5CCOCC5)cc4[n+]3C)c(=O)oc2c1 | < 4.40 | 4.54 | < 4.40 | 5.34 |  |  |
| CCN(CC)c1ccc2cc(/C=C/c3ccc4cc(F)c(N5CCN(C(C)=O)CC5)cc4[n+]3C)c(=O)oc2c1 | < 4.40 | 4.49 | < 4.40 | 5.25 |  |  |
| CCN(CC)c1ccc2cc(/C=C/c3cc(N4CCN(C)CC4)c4cc(F)c(NCc5cn(CCC(=O)O)nn5)cc4[n+]3C)c(=O)oc2c1 | < 4.40 | < 4.40 | < 4.40 | < 4.40 |  |  |
| CCN(CC)c1ccc2cc(/C=C/c3ccc4cc(F)c(N5CCN(Cc6cn(CCc7cccs7)nn6)CC5)cc4[n+]3C)c(=O)oc2c1 | < 4.40 | 4.62 | < 4.40 | 5.17 |  |  |
| CCN(CC)c1ccc2cc(/C=C/c3ccc4cc(F)c(NCCCn5ccnc5)cc4[n+]3C)c(=O)oc2c1 | < 4.40 | < 4.40 | < 4.40 | 4.87 |  |  |
| CCN(CC)c1ccc2cc(/C=C/c3ccc4cc(F)c(NCCc5nc6ccccc6[nH]5)cc4[n+]3C)c(=O)oc2c1 | < 4.40 | 4.72 | < 4.40 | 5.40 |  |  |
| CCN(CC)c1ccc2cc(/C=C/c3ccc4cc(F)c(N5CCN(C(=O)C(C)C)CC5)cc4[n+]3C)c(=O)oc2c1 | < 4.40 | 4.40 | < 4.40 | 5.47 |  |  |
| CCN(CC)c1ccc2cc(/C=C/c3ccc4cc(F)c(NCCOCCO)cc4[n+]3C)c(=O)oc2c1 | < 4.40 | < 4.40 | < 4.40 | 5.01 |  |  |
| CCN(CC)c1ccc2cc(/C=C/c3cc(N4CCN(C)CC4)c4cc(F)c(NCc5cn(CCC(=O)OC)nn5)cc4[n+]3C)c(=O)oc2c1 | < 4.40 | < 4.40 | < 4.40 | < 4.40 |  |  |
| CCN(CC)c1ccc2cc(/C=C/c3cc(N4CCN(C)CC4)c4cc(F)c(NCc5cn(CCc6cccs6)nn5)cc4[n+]3C)c(=O)oc2c1 | < 4.40 | 4.72 | < 4.40 | 5.05 |  |  |
| CCN(CC)CCCn1cc(CN2CCN(c3cc4c(ccc(/C=C/c5cc6ccc(N(CC)CC)cc6oc5=O)[n+]4C)cc3F)CC2)nn1 | < 4.40 | < 4.40 | < 4.40 | < 4.40 |  |  |
| CCCCN(CCCC)CCCn1cc(CNc2cc3c(cc2F)c(N2CCN(C)CC2)cc(/C=C/c2cc4ccc(N(CC)CC)cc4oc2=O)[n+]3C)nn1 | < 4.40 | 5.06 | < 4.40 | 5.23 | Active | Active |
| CCN(CC)c1ccc2cc(/C=C/c3ccc4cc(F)c(N5CCCCC5)cc4[n+]3C)c(=O)oc2c1 | < 4.40 | 4.69 | < 4.40 | 4.94 |  |  |
| CCN(CC)c1ccc2cc(/C=C/c3cc(N4CCCN(C)CC4)c4cc(F)c(N5CCCN(C)CC5)cc4[n+]3C)c(=O)oc2c1 | < 4.40 | 4.94 | < 4.40 | 5.00 | Active | Active |
| CCN(CC)c1ccc2cc(/C=C/c3cc(NCCN4CCCC4)c4cc(F)c(NCCN5CCCC5)cc4[n+]3C)c(=O)oc2c1 | < 4.40 | < 4.40 | < 4.40 | 4.77 |  |  |
| CCN(CC)c1ccc2cc(/C=C/c3ccc4cc(F)c(N5CCN(Cc6cn(CCCN7CCCCC7)nn6)CC5)cc4[n+]3C)c(=O)oc2c1 | < 4.40 | < 4.40 | < 4.40 | 4.57 |  |  |
| CCN(CC)c1ccc2cc(/C=C/c3cc(N4CCN(C)CC4)c4cc(F)c(NCc5cn(CCCN6CCOCC6)nn5)cc4[n+]3C)c(=O)oc2c1 | < 4.40 | < 4.40 | < 4.40 | < 4.40 |  |  |
| CCN(CC)c1ccc2cc(/C=C/c3ccc4cc(F)c(NCC5CCOCC5)cc4[n+]3C)c(=O)oc2c1 | < 4.40 | 4.49 | 4.95 | 4.97 |  |  |
| CCN(CC)c1ccc(Nc2cc3c(ccc(/C=C/c4cc5ccc(N(CC)CC)cc5oc4=O)[n+]3C)cc2F)cc1 | > 5.89 | > 5.89 | > 5.89 | > 4.89 |  |  |
| CCN(CC)CCCn1cc(CNc2cc3c(cc2F)c(N2CCN(C)CC2)cc(/C=C/c2cc4ccc(N(CC)CC)cc4oc2=O)[n+]3C)nn1 | < 4.40 | < 4.40 | < 4.40 | < 4.40 |  |  |
| CCN(CC)c1ccc2cc(/C=C/c3cc(N4CCN(C)CC4)c4cc(F)c(N5CCN(C)CC5)cc4[n+]3C)c(=O)oc2c1 | < 4.40 | 4.58 | < 4.40 | 4.80 |  |  |
| CCN(CC)c1ccc2cc(/C=C/c3ccc4cc(F)c(N5CCN(Cc6cn(CCCO)nn6)CC5)cc4[n+]3C)c(=O)oc2c1 | < 4.40 | < 4.40 | < 4.40 | < 4.40 |  |  |

| SMILES | pIC50 [1] | pIC50 [2] | pIC50 [3] | pIC50 [4] | inhibition [5] | inhibition [6] |
| --- | --- | --- | --- | --- | --- | --- |
| CCN(CC)c1ccc2cc(/C=C/c3ccc4cc(F)c(NCc5ccccc5C(F)(F)F)cc4[n+]3C)c(=O)oc2c1 | 4.91 | 5.15 | 5.52 | > 5.89 |  |  |
| CCCCN(CCCC)CCCn1cc(CN2CCN(c3cc4c(ccc(/C=C/c5cc6ccc(N(CC)CC)cc6oc5=O)[n+]4C)cc3F)CC2)nn1 | < 4.40 | 4.59 | < 4.40 | 5.15 |  |  |
| CCN(CC)c1ccc2cc(/C=C/c3ccc4cc(F)c(N5CCN(Cc6cn(CCCN7CCCC7)nn6)CC5)cc4[n+]3C)c(=O)oc2c1 | < 4.40 | 4.70 | 4.89 | < 4.40 |  |  |
| CCN(CC)c1ccc2cc(/C=C/c3ccc4cc(F)c(N5CCN(Cc6cn([C@@H]7O[C@H](CO)[C@@H](O)[C@H](O)[C@H]7O)nn6)CC5)cc4[n+]3C)c(=O)oc2c1 | < 4.40 | < 4.40 | < 4.40 | < 4.40 |  |  |
| CCN(CC)c1ccc2cc(/C=C/c3cc(N4CCN(C)CC4)c4cc(F)c(NCc5cn(CCCN6CCCC6)nn5)cc4[n+]3C)c(=O)oc2c1 | < 4.40 | < 4.40 | < 4.40 | < 4.40 |  |  |
| CCN(CC)c1ccc2cc(/C=C/c3ccc4cc(F)c(NCc5ccccc5C)cc4[n+]3C)c(=O)oc2c1 | 4.73 | 5.23 | 5.34 | > 5.89 |  |  |
| CCN(CC)c1ccc2cc(/C=C/c3ccc4cc(F)c(N5CCOCC5)cc4[n+]3C)c(=O)oc2c1 | < 4.40 | 4.88 | < 4.40 | 4.53 |  |  |
| CCN(CC)c1ccc2cc(/C=C/c3ccc4cc(F)c(Nc5ccc(N6CCN(C)CC6)nc5)cc4[n+]3C)c(=O)oc2c1 | 4.98 | < 4.40 | < 4.40 | 5.05 |  |  |
| CCN(CC)c1ccc2cc(/C=C/c3ccc4cc(F)c(NCCc5cccs5)cc4[n+]3C)c(=O)oc2c1 | 5.36 | > 5.89 | > 5.89 | > 5.89 |  |  |
| CCN(CC)c1ccc2cc(/C=C/c3cc(N4CCN(C)CC4)c4cc(F)c(NCc5cn(CCCN6CCCCC6)nn5)cc4[n+]3C)c(=O)oc2c1 | < 4.40 | < 4.40 | < 4.40 | < 4.40 |  |  |
| CCN(CC)c1ccc2cc(/C=C/c3ccc4cc(F)c(N5CCN(Cc6cn(CCCN(C)C)nn6)CC5)cc4[n+]3C)c(=O)oc2c1 | < 4.40 | < 4.40 | < 4.40 | < 4.40 |  |  |
| CCN(CC)c1ccc2cc(/C=C/c3ccc4cc(F)c(NCCO)cc4[n+]3C)c(=O)oc2c1 | < 4.40 | 4.42 | < 4.40 | 5.14 |  |  |
| CCN(CC)c1ccc2cc(/C=C/c3cc(NCCCn4ccnc4)c4cc(F)c(NCCCn5ccnc5)cc4[n+]3C)c(=O)oc2c1 | < 4.40 | < 4.40 | < 4.40 | 4.48 |  |  |
| CCN(CC)c1ccc2cc(/C=C/c3ccc4cc(F)c(NCCCOC(C)C)cc4[n+]3C)c(=O)oc2c1 | 4.63 | 5.54 | 5.22 | 5.82 |  |  |
| CCN1CCN(c2ccc(Nc3cc4c(ccc(/C=C/c5cc6ccc(N(CC)CC)cc6oc5=O)[n+]4C)cc3F)cc2)CC1 | < 4.40 | 4.82 | < 4.40 | 5.06 |  |  |
| CCN(CC)c1ccc2cc(/C=C/c3ccc4cc(F)c(N5CCN(Cc6cn(CCCN7CCOCC7)nn6)CC5)cc4[n+]3C)c(=O)oc2c1 | < 4.40 | < 4.40 | < 4.40 | 4.63 |  |  |
| CCN(CC)c1ccc2cc(/C=C/c3cc(N4CCN(C)CC4)c4cc(F)c(NCc5cn([C@@H]6O[C@H](CO)[C@@H](O)[C@H](O)[C@H]6O)nn5)cc4[n+]3C)c(=O)oc2c1 | < 4.40 | < 4.40 | < 4.40 | < 4.40 |  |  |
| CCN(CC)c1ccc2cc(/C=C/c3ccc4cc(F)c(Nc5ccc6nc(C)[nH]c6c5)cc4[n+]3C)c(=O)oc2c1 | 4.83 | 4.89 | < 4.40 | 4.92 |  |  |
| CCN(CC)c1ccc2cc(/C=C/c3cc(N4CCN(C)CC4)c4cc(F)c(NCc5cn(CCCN(C)C)nn5)cc4[n+]3C)c(=O)oc2c1 | < 4.40 | 4.45 | < 4.40 | < 4.40 |  |  |
| CCN(CC)c1ccc2cc(/C=C/c3ccc4cc(F)c(NCCN(C(C)C)C(C)C)cc4[n+]3C)c(=O)oc2c1 | 4.82 | 5.47 | 4.89 | 5.89 |  |  |
| CCN(CC)c1ccc2cc(/C=C/c3cc(NCCCN4CCCC4)c4cc(F)c(NCCCN5CCCC5)cc4[n+]3C)c(=O)oc2c1 | < 4.40 | < 4.40 | < 4.40 | < 4.40 |  |  |
| CCN(CC)c1ccc2cc(/C=C/c3ccc4cc(F)c(N5CCN(Cc6cn(CCC(=O)O)nn6)CC5)cc4[n+]3C)c(=O)oc2c1 | < 4.40 | < 4.40 | < 4.40 | 4.90 |  |  |
